The record followed here is US5543422A, “Heterocyclic amines” (British Technology Group Limited, priority 1992, dated 1996).

Structures can show the parent of a compound that is named as a salt.

One series concerns the target T1, calmodulin (Bos taurus, UniProt P62157).
T1 construct: a sufficient amount of bovine brain calmodulin; from tissue; host or cells: bovine brain (calmodulin); bovine heart (PDE)
Nature of the series: inhibition of calmodulin activation of cyclic nucleotide phosphodiesterase (PDE), hydrolysis of [3H] cAMP. The format is biochemical, bovine. The settings on record: Table 1; mean ± S.E. of three assays; * (β CHCH 4 6) mean of two; read-out: IC50 in μM (x ± SE).
`c1ccc2cc(SCCCCCN3CCCCC3)ccc2c1` [β 5 piperdine]: the IC50 is 22.1 ± 3 µM.

For `C(=Cc1ccc2ccccc2c1)CCCCN1CCCCC1` [β CHCH 4 6, N-6-(naphth-2-yl)hex-5-enylpiperidine oxalate], the IC50 was 2.2 ± 0.3 µM. On to `c1ccc2c(OCCCCCN3CCCCC3)cccc2c1` [α 5 CH2], for which the IC50 is 39.1 ± 8.9 µM.

The series is the same for the next values; noted with them: Table 2; mean ± S.E. of three assays; * (α 3 CH2, β 2 CH2, β 3 CH2, α 3 0, β 2 0) mean of two; read-out: IC50 in μM (x ± SE).
`c1ccc2c(OCCN3CCOCC3)cccc2c1` [α 2 0]: the IC50 was greater than 250 µM. Same read-out and setting: the figure for `c1ccc2c(OCCN3CCCCC3)cccc2c1` [α 2 CH2] is 152 ± 18.8 µM; for `c1ccc2cc(OCCCCN3CCOCC3)ccc2c1` [β 4 0] it is 85.6 ± 7 µM.

On to `c1ccc2cc(OCCCCCN3CCCCC3)ccc2c1` [β 5 CH2], for which the concentration for half-maximal inhibition (IC50) is 53.9 ± 1.6 µM.

On to `c1ccc2c(OCCCN3CCCCC3)cccc2c1` [α 3 CH2], for which the IC50 came to 106 ± 18 µM. The same measure, in the same setting: the figure for `c1ccc2c(OCCCCCCN3CCCCC3)cccc2c1` [α 6 CH2] is 28.5 ± 2 µM.

As to `c1ccc2c(OCCCCN3CCCCC3)cccc2c1` [α 4 CH2, -4-(naphth-1-yloxy)butylpiperidine oxalate], the IC50 amounted to 7.4 ± 0.5 µM. Take `c1ccc2c(OCCCCCCCCN3CCCCC3)cccc2c1` [α 8 CH2]: the IC50 was found to be 5.3 ± 0.3 µM.

With `c1ccc2cc(OCCCN3CCCCC3)ccc2c1` [β 3 CH2], the IC50 came out at 29.2 ± 1.4 µM.

For the compound `c1ccc2c(OCCCCCCCN3CCCCC3)cccc2c1` [α 7 CH2, N-7-(naphth-1-yloxy)heptylpiperidine hydrochloride], the IC50 came to 4.7 ± 0.3 µM. On to `c1ccc2c(OCCCCCN3CCOCC3)cccc2c1` [α 5 0], for which the IC50 was determined as 42.3 ± 9.1 µM. The same measure, in the same setting: the figure for `c1ccc2cc(OCCCN3CCOCC3)ccc2c1` [β 3 0] is greater than 250 µM; for `c1ccc2cc(OCCN3CCOCC3)ccc2c1` [β 2 0] it is greater than 250 µM; for `c1ccc2cc(OCCN3CCCCC3)ccc2c1` [β 2 CH2] it is greater than 250 µM. The same measure, in the same setting: the figure for `c1ccc2c(OCCCCN3CCOCC3)cccc2c1` [α 4 0] is 53.2 ± 10.5 µM. Regarding `c1ccc2c(OCCCN3CCOCC3)cccc2c1` [α 3 0], the IC50 is 217 ± 24.7 µM. Regarding `c1ccc2cc(OCCCCN3CCCCC3)ccc2c1` [β 4 CH2], the IC50 turned out to be 55.8 ± 6 µM. For `c1ccc2cc(OCCCCCN3CCOCC3)ccc2c1` [β 5 0], the IC50 was determined as 72.7 ± 9.4 µM.

Still in this series, the particulars now being: Table 3; mean ± S.E. of three assays; * (β 6 piperdine) mean of two; read-out: IC50 in μM (x ± SE).
For the compound `c1ccc2c(SCCCCN3CCCCC3)cccc2c1` [α 4 piperdine], the IC50 was determined as 23.6 ± 1.6 µM. For `c1ccc2cc(SCCCCCN3CCOCC3)ccc2c1` [β 5 morpholine], the IC50 is 20.1 ± 2.25 µM. On the same count and under the same terms, next, `c1ccc2cc(SCCCCN3CCCCC3)ccc2c1` [β 4 piperdine]: 12.3 ± 2.6 µM; `c1ccc2cc(SCCCCN3CCCC3)ccc2c1` [β 4 pyrrolidine]: 18 ± 1.3 µM.

Consider `c1ccc2cc(SCCCCCCN3CCCCC3)ccc2c1` [β 6 piperdine], for which the IC50 stood at 12.5 ± 1.5 µM. On to `c1ccc2cc(SCCCN3CCCCC3)ccc2c1` [β 3 piperdine], for which the IC50 worked out at 77.7 ± 4.1 µM.

Staying with this series, now noted: Table 4, heteroatoms in the side chain; mean ± S.E.; read-out: IC50 in μM (x ± SE).
As for `c1ccc2c(OCCSCCN3CCCCC3)cccc2c1`, the IC50 is 41.7 ± 6.2 µM. The same measure, in the same setting: next, `c1ccc2c(CCNCCCCCN3CCCCC3)cccc2c1`: 11.5 ± 1.6 µM.

The series is the same for the next values; noted with them: Table 5, effect of base strength of the terminal amine; mean ± S.E.; read-out: IC50 in μM (x ± S.E.).
Consider `NCCCCOc1cccc2ccccc12` [NH2], for which the IC50 was found to be 3.85 ± 0.2 µM. As to `c1ccc2c(OCCCCN3CCCC3)cccc2c1` [pyrrolidine, N-4-(naphth-1-yloxy)butylpyrrolidine], the IC50 worked out at 4 ± 0.2 µM. As for `c1ccc2c(OCCCCn3ccnc3)cccc2c1` [imidazole], the IC50 stood at 68.3 ± 6.7 µM.

Still in this series, the particulars now being: Table 6, halogen substitution on the naphthalene ring; mean ± S.E.; read-out: IC50 in μM (x ± SE).
For the compound `Brc1ccc2cc(OCCCCN3CCCCC3)ccc2c1`, the IC50 turned out to be 9.3 ± 2 µM.

Still in this series, the particulars now being: Table 7, effect of the aryl moiety; mean ± S.E. of three assays; * (drawing 9 6 pyrrolidine) mean of two; read-out: IC50 in μM (x ± SE).
With `c1cc(OCCCCCCN2CCCC2)c2occc2c1` [drawing 9 6 pyrrolidine], the IC50 was 204 ± 13.3 µM. For the compound `c1cc(OCCCCCCN2CCCCC2)c2ccsc2c1` [drawing 8 6 piperdine, N-6-(benzo[b]thien-4-yloxy)hexylpiperidine], the IC50 is 0.38 ± 0.1 µM.

For the compound `c1cc(OCCCCN2CCCCC2)c2occc2c1` [drawing 9 4 piperdine], the IC50 was determined as 70.1 ± 8.6 µM. Same read-out and setting: the figure for `Clc1ccc(OCCCCN2CCCCC2)cc1Cl` is 55.3 ± 10 µM; for `c1cc(OCCCCN2CCCC2)c2ccsc2c1` [drawing 8 4 pyrrolidine, N-4-(benzo[b]thien-4-yloxy)butylpyrrolidine] it is 0.88 ± 0.14 µM; for `c1cc(OCCCCCCN2CCCC2)c2ccsc2c1` [drawing 8 6 pyrrolidine, N-6-(benzo[b]thien-4-yloxy)hexylpyrrolidine] it is 0.22 ± 0.04 µM.

For the compound `c1cc(OCCCCN2CCCCC2)c2ccsc2c1` [drawing 8 4 piperdine, N-[4-(benzo[b]thien-4-yloxy)butyl]piperidine oxalate], the IC50 came out at 1.8 ± 0.6 µM.

The series is the same for the next values; noted with them: various concentrations.
Turning to `O=C(O)C(=O)O` [oxalic acid], the “effect on calmodulin-activated PDE” value is listed as “none was found”.

The test system of a further series is calmodulin-independent PDE. Nature of the series: inhibition of calmodulin-independent activity of PDE. The format is biochemical, bovine. The settings on record: various concentrations. Here is the method:
The assay was based on the incubation of calmodulin-deficient bovine heart PDE with [^3 H] cyclic adenosine monophosphate (cAMP), and a sufficient amount of bovine brain calmodulin (12.5 ng/100 μl) to give 70-80% activation of the enzyme. The resultant [^3 H] 5'-AMP formed was hydrolysed to [3H] adenosine upon incubation with the 5'-nucleotidase of the Western Diamondback Rattlesnake (Crotalus atrox). The nucleoside was then separated from the unreacted substrate using anion exchange resin. […] The degree of inhibition of calmodulin-activation of PDE in the presence of a range of drugs was expressed as a percentage of the activity of calmodulin-activated PDE in the absence of any drug. […] To give an indication of any inhibition of PDE by compounds, the activity of PDE in the presence of two concentrations of compound (approximately ten fold difference) were included in the assay. As there was no significant difference in the activity of PDE with or without the drug it was concluded that there was no inhibition of calmodulin-independent PDE by the drugs at the concentrations used. The percentage inhibition recorded for calmodulin-activated PDE was therefore due solely to the action of the drugs on the activity of calmodulin.
Consider `O=C(O)C(=O)O` [oxalic acid], for which the “effect on PDE” value is reported as “none was found”.

Test system in a further series: not listed separately
The series is described as follows: base strength (pka) of the terminal amine. The format is physicochemical. The settings on record: Table 5, terminal amine.
With `c1ccc2c(OCCCCN3CCCCC3)cccc2c1` [α 4 CH2, -4-(naphth-1-yloxy)butylpiperidine oxalate], the pKa came to 10.1.

`NCCCCOc1cccc2ccccc12` [NH2] showed a pKa of 10.6. `c1ccc2c(OCCCCN3CCCC3)cccc2c1` [pyrrolidine, N-4-(naphth-1-yloxy)butylpyrrolidine] had a pKa of 10.3. `c1ccc2c(OCCCCN3CCOCC3)cccc2c1` [α 4 0]: the pKa is 7.41. As to `c1ccc2c(OCCCCn3ccnc3)cccc2c1` [imidazole], the pKa came to 7.33.
